Patent publication US20260158017A1, “KIF18A INHIBITOR” (WIGEN BIOMEDICINE TECHNOLOGY (SHANGHAI) CO., LTD., priority 2021, published 2026)

These compounds were tested against T1, Recombinant human KIF18A (1-467His-tagged) protein (Homo sapiens, UniProt Q8NI77) (assay: KIF18A enzyme assay (microtubule-stimulated ATPase activity, ADP-Glo)). Conditions: 30 nM KIF18A, 75 μM ATP, 30 μg/mL pig microtubules; read-out: Inhibitory activity against KIF18A IC50.
T1 construct: Recombinant human KIF18A (1-467His-tagged) protein; His; made in house
T1 sequence (Q8NI77 1-467): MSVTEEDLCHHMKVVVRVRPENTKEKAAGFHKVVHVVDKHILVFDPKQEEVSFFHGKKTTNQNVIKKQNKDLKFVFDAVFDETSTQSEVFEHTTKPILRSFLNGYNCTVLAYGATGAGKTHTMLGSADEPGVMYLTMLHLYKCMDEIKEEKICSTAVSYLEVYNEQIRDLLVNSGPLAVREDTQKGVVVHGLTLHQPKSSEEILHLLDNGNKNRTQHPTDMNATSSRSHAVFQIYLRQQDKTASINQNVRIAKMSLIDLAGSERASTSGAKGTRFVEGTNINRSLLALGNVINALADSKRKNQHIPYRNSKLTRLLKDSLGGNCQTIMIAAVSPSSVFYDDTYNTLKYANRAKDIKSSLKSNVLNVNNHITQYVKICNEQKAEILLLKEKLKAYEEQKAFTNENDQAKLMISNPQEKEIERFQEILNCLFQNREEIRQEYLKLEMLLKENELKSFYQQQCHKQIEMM
T1 sequence (P02550 whole entry partner): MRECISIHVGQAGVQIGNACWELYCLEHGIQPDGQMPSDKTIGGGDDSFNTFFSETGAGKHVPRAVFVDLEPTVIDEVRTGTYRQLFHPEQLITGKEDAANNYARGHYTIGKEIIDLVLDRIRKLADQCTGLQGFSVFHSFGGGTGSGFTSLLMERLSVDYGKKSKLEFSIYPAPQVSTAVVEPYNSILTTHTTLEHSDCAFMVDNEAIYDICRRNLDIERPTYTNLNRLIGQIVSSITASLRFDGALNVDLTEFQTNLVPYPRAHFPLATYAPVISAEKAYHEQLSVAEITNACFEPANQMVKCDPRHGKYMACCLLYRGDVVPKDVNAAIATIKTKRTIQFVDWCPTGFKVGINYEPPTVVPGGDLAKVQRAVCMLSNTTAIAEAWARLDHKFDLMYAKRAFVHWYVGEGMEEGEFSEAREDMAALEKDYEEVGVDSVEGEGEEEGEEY
T1 sequence (P02554 whole entry partner): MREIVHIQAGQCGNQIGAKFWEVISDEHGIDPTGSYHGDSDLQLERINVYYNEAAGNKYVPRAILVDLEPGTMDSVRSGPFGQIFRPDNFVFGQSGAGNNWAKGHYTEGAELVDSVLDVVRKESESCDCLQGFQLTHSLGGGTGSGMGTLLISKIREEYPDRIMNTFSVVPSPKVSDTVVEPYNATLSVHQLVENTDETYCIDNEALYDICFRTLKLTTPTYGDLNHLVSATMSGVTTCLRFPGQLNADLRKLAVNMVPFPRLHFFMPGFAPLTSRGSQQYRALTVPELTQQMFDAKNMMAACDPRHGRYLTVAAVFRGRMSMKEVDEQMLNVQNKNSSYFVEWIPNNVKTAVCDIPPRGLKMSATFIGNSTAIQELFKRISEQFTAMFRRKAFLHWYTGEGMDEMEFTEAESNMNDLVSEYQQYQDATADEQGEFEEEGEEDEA
Format: biochemical
Procedure: In Vitro Assay of the Compounds of the Present Invention for Inhibiting Enzymatic Activity of KIF18A
KIF18A enzyme assay: The enzymatic activity of KIF18A after treatment with the compounds was measured by an assay of microtubule-stimulated ATPase activity. ADP generated from the ATPase reaction was measured in this assay. The compounds were serially diluted 2-fold in DMSO over a range of 22 concentration points. […] Concentrations of KIF18A protein, microtubules, and ATP in the reaction were optimized for a standardized homogenous enzyme assay using an ADP-Glo kinase/ATPase assay kit. A reaction buffer [(15 mM Tris, pH 7.5), 10 mM MgCl2, 0.01% PluronicF-68, 1 μM paclitaxel, and 30 μg/mL pig microtubules] was prepared. […] The resulting reaction mixture was incubated at room temperature for another 15 min. 5 μL of ADP-Glo reagent and 2.5 μL of the reaction mixture were mixed and the resulting mixture was incubated at room temperature for 40 min. 10 μL of ADP-Glo detection reagent was added and the mixture was incubated at room temperature for 40 min. Luminescence was read using a microplate reader and compared with that of the DMSO group, and then the inhibition percentages and IC50 values of the compounds were calculated.

IC50 [nM]	SMILES
≤ 100	COc1ccc(C(=O)Nc2ccc(S(=O)(=O)NCCO)cc2N2CCC3(CC2)CC3)nc1OC1CCC1 [Compound 343]
≤ 100	O=C(Nc1ccc(OCF)c(N2CCOCC2)n1)c1ccc(S(=O)(=O)NCCO)cc1N1CCC2(CC1)CC2 [Compound 444]
100 to 500	C[C@@H]1CN(c2cc(C(=O)Nc3ccc(NS(=O)(=O)[C@@H](C)CO)cc3N3CCC4(CC3)CC4)ccc2[N+](=O)[O-])CCO1 [Compound 47]
100 to 500	O=C(Nc1ccc(S(=O)(=O)NCCO)cc1N1CCC2(CC1)CC2)c1ccc([N+](=O)[O-])c(OCCC(F)(F)F)n1 [Compound 181]
≤ 100	O=C(Nc1cnc(NS(=O)(=O)CCO)cc1N1CCC2(CC1)CC2)c1ccc([N+](=O)[O-])c(N2CCOCC2)c1 [Compound 204]
100 to 500	O=C(Nc1ccc(S(=O)(=O)NCCO)cc1N1CCC2(CC1)CC2)c1ccc([N+](=O)[O-])c(N2CCC3(CC3)C2)n1 [Compound 182]
≤ 100	CC1(F)CCN(c2cc(NC(=O)c3cnc(NS(=O)(=O)CCO)cc3N3CCC4(CC3)CC4)ccc2[N+](=O)[O-])C1 (centres unmarked) [Compound 104]
100 to 500	O=C(Nc1cnc(S(=O)(=O)NCCO)cc1N1CCC2(CC1)CC2)c1ccc([N+](=O)[O-])c(OCCC(F)(F)F)c1 [Compound 213]
≤ 100	O=C(Nc1ccc(OCF)c(N2CCOCC2)n1)c1ccc(NS(=O)(=O)CCO)cc1N1CCC2(CC1)CC2 [Compound 428]
≤ 100	COc1ccc(NC(=O)c2cnc(S(=O)(=O)NCCO)cc2N2CCC3(CC2)CC3)nc1N1CCC(F)CC1 [Compound 313]
≤ 100	O=C(Nc1cnc(NS(=O)(=O)CCO)cc1N1CCC2(CC1)CC2)c1ccc([N+](=O)[O-])c(OC2CCC2)c1 [Compound 199]
≤ 100	C[C@@H](CO)S(=O)(=O)Nc1ccc(NC(=O)c2ccc([N+](=O)[O-])c(N3CCC(F)(F)CC3)n2)c(N2CCC3(CC2)CC3)c1 [Compound 173]
≤ 100	O=C(Nc1ccc([N+](=O)[O-])c(OCCC(F)(F)F)n1)c1ccc(S(=O)(=O)NCCO)cc1N1CCC2(CC1)CC2 [Compound 85]
≤ 100	COc1ccc(NC(=O)c2cnc(NS(=O)(=O)CCO)cc2N2CCC3(CC2)CC3)nc1NC(C)(C)CO [Compound 299]
≤ 100	CC(C)(CO)Nc1cc(C(=O)Nc2ccc(NS(=O)(=O)CCO)cc2N2CCC3(CC2)CC3)ccc1OCF [Compound 523]
≤ 100	COc1ccc(NC(=O)c2ccc(NS(=O)(=O)CCO)cc2N2CCC3(CC2)CC3)nc1N1CCC(C)(F)C1 (centres unmarked) [Compound 264]
≤ 100	CC(C)(CO)Nc1nc(C(=O)Nc2cnc(NS(=O)(=O)CCO)cc2N2CCC3(CC2)CC3)ccc1[N+](=O)[O-] [Compound 235]
≤ 100	O=C(Nc1ccc(OCF)c(OCCC(F)(F)F)n1)c1cnc(S(=O)(=O)NCCO)cc1N1CCC2(CC1)CC2 [Compound 501]
≤ 100	O=C(Nc1ccc([N+](=O)[O-])c(N2CCOCC2)n1)c1cnc(S(=O)(=O)NCCO)cc1N1CCC2(CC1)CC2 [Compound 156]
≤ 100	COc1ccc(C(=O)Nc2cnc(NS(=O)(=O)CCO)cc2N2CCC3(CC2)CC3)nc1N1CC2CC2C1 (centres unmarked) [Compound 362]
≤ 100	O=C(Nc1ccc([N+](=O)[O-])c(OC2CCC2)c1)c1cnc(NS(=O)(=O)CCO)cc1N1CCC2(CC1)CC2 [Compound 103]
≤ 100	COc1ccc(C(=O)Nc2ccc(S(=O)(=O)NCCO)cc2N2CCC3(CC2)CC3)nc1N1CC(F)(F)C1 [Compound 340]
≤ 100	O=C(Nc1ccc([N+](=O)[O-])c(N2CCC3(CC3)C2)n1)c1cnc(NS(=O)(=O)CCO)cc1N1CCC2(CC1)CC2 [Compound 134]
≤ 100	O=C(Nc1ccc(OCF)c(N2CCC3(CC3)C2)n1)c1cnc(NS(=O)(=O)CCO)cc1N1CCC2(CC1)CC2 [Compound 486]

IC50 [nM]	SMILES
≤ 100	COc1ccc(C(=O)Nc2ccc(NS(=O)(=O)CCO)cc2N2CCC3(CC2)CC3)nc1OC1CCC1 [Compound 327]
100 to 500	O=C(Nc1cnc(S(=O)(=O)NCCO)cc1N1CCC2(CC1)CC2)c1ccc([N+](=O)[O-])c(N2CCC(F)(F)CC2)c1 [Compound 209]
≤ 100	C[C@@H]1CN(c2nc(NC(=O)c3cnc(NS(=O)(=O)CCO)cc3N3CCC4(CC3)CC4)ccc2[N+](=O)[O-])CCO1 [Compound 130]
≤ 100	O=C(Nc1ccc(OCF)c(OCCC(F)(F)F)c1)c1cnc(NS(=O)(=O)CCO)cc1N1CCC2(CC1)CC2 [Compound 453]
≤ 100	CSc1ccc(NC(=O)c2ccc(NS(=O)(=O)CCO)cc2N2CCC3(CC2)CC3)nc1N1CCO[C@H](C)C1 [Compound 594]
100 to 500	C[C@H](CO)NS(=O)(=O)c1ccc(NC(=O)c2ccc(OCF)c(N3CCC(F)(F)CC3)c2)c(N2CCC3(CC2)CC3)c1 [Compound 542]
≤ 100	COc1ccc(C(=O)Nc2cnc(NS(=O)(=O)[C@H](C)CO)cc2N2CCC3(CC2)CC3)nc1N1CCO[C@H](C)C1 [Compound 368]
≤ 100	CSc1ccc(NC(=O)c2ccc(NS(=O)(=O)[C@@H](C)CO)cc2N2CCC3(CC2)CC3)nc1N1CCO[C@H](C)C1 [Compound 607]
≤ 100	CSc1ccc(NC(=O)c2ccc(NS(=O)(=O)CCO)cc2N2CCC3(CC2)CC3)cc1N1CCO[C@H](C)C1 [Compound 578]
≤ 100	CSc1ccc(NC(=O)c2ccc(NS(=O)(=O)CCO)cc2N2CCC3(CC2)CC3)nc1N1CC(F)(F)C1 [Compound 596]
≤ 100	CSc1ccc(NC(=O)c2ccc(NS(=O)(=O)CCO)cc2N2CCC3(CC2)CC3)cc1N1CC(F)(F)C1 [Compound 580]
100 to 500	CC(C)(CO)Nc1cc(C(=O)Nc2cnc(S(=O)(=O)NCCO)cc2N2CCC3(CC2)CC3)ccc1[N+](=O)[O-] [Compound 219]
≤ 100	C[C@@H]1CN(c2cc(C(=O)Nc3ccc(NS(=O)(=O)CCO)cc3N3CCC4(CC3)CC4)ccc2[N+](=O)[O-])CCO1 [Compound 34]
≤ 100	O=C(Nc1ccc(OCF)c(N2CCC(F)CC2)c1)c1cnc(NS(=O)(=O)CCO)cc1N1CCC2(CC1)CC2 [Compound 457]
≤ 100	C[C@H](CO)S(=O)(=O)Nc1ccc(NC(=O)c2ccc(OCF)c(N3CCC(F)(F)CC3)c2)c(N2CCC3(CC2)CC3)c1 [Compound 526]
≤ 100	C[C@@H]1CN(c2cc(NC(=O)c3cnc(NS(=O)(=O)CCO)cc3N3CCC4(CC3)CC4)ccc2[N+](=O)[O-])CCO1 [Compound 98]
≤ 100	CC1(F)CCN(c2nc(NC(=O)c3cnc(NS(=O)(=O)CCO)cc3N3CCC4(CC3)CC4)ccc2[N+](=O)[O-])C1 (centres unmarked) [Compound 136]
≤ 100	COc1ccc(C(=O)Nc2ccc(S(=O)(=O)NCCO)cc2N2CCC3(CC2)CC3)nc1N1CCO[C@H](C)C1 [Compound 338]
≤ 100	O=C(Nc1ccc([N+](=O)[O-])c(N2CCC3(CC3)C2)c1)c1ccc(S(=O)(=O)NCCO)cc1N1CCC2(CC1)CC2 [Compound 22]
≤ 100	COc1ccc(NC(=O)c2cnc(NS(=O)(=O)CCO)cc2N2CCC3(CC2)CC3)nc1OCCC(F)(F)F [Compound 293]
≤ 100	CSc1ccc(NC(=O)c2cnc(NS(=O)(=O)CCO)cc2N2CCC3(CC2)CC3)nc1N1CCC(C)(F)C1 (centres unmarked) [Compound 632]
≤ 100	O=C(Nc1cnc(NS(=O)(=O)CCO)cc1N1CCC2(CC1)CC2)c1ccc([N+](=O)[O-])c(N2CC(F)(F)C2)c1 [Compound 196]
100 to 500	C[C@H](CO)NS(=O)(=O)c1ccc(NC(=O)c2ccc(OCF)c(N3CCO[C@H](C)C3)c2)c(N2CCC3(CC2)CC3)c1 [Compound 544]
